Test systems include CCRF-CEM leukemia; HCT-15 colon; KM12 colon; M19-MEL melanoma; NCI-H23 lung; NCI-H522 lung; OVCAR-4 ovarian; SF-539 CNS; DMS 273 small cell lung; HL-60(TB) leukemia.
Common to all, as to experiment: growth of human tumour cells (NCI), 48 h

Each structure is given as a SMILES string.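 Dose response: 5 concentrations. Exposure: 48 h. Format: 96-well plates. Endpoint: linear interpolation; highest concentration if not reached. At the GI50, growth is halved. Definition used: TGI = concentration required for complete inhibition of growth.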

In the case of `O=C(N/C(=C\c1ccc([N+](=O)[O-])cc1)c1nc2[nH]c(=S)[nH]c(=O)c2[nH]1)c1ccccc1`, the TGI with CCRF-CEM leukemia, with HCT-15 colon, in the test on KM12 colon, in the test with M19-MEL melanoma, with NCI-H23 lung and in the test on NCI-H522 lung was over 100 µM in each case. Moreover, the TGI with OVCAR-4 ovarian and with SF-539 CNS was over 100 µM throughout.
In the case of `COC1=NN2C(OC)(c3ccccc3)c3c(-c4ccccc4)sc(-c4ccccc4)c3C2(c2ccccc2)S1` (stereo not drawn), the TGI in the test with CCRF-CEM leukemia, in the test on DMS 273 small cell lung, in the test on HCT-15 colon, in the test with HL-60(TB) leukemia, in the test with KM12 colon and in the test on NCI-H23 lung was over 100 µM each time. The TGI with NCI-H522 lung and with SF-539 CNS was over 100 µM in each case.
For the compound `CSc1nc2c(nc(N)n2C2OCC(O)C(O)C2O)c(=O)[nH]1` (stereo not drawn), the TGI with CCRF-CEM leukemia, with HL-60(TB) leukemia, with KM12 colon, in the test on M19-MEL melanoma, with NCI-H23 lung and in the test with NCI-H522 lung was over 100 µM throughout. The TGI in the test with OVCAR-4 ovarian and with SF-539 CNS was over 100 µM throughout.
With `C[C@@H]1CN(Cc2ccc(/C=C/c3n[nH]c4ccc5nc(-c6cn[nH]c6C(F)(F)F)c6c(c5c34)CCCC6)cc2)C[C@H](C)O1`, the GI50 in the test with CCRF-CEM leukemia is 0.718 µM; with HCT-15 colon, 1.76 µM; in the test with HL-60(TB) leukemia it was 6.32 µM; with KM12 colon it was 2.03 µM; in the test on NCI-H23 lung, 5.71 µM; with NCI-H522 lung it was 2.02 µM. The GI50 with OVCAR-4 ovarian was 5.03 µM; in the test on SF-539 CNS, 2.97 µM. Moreover, the TGI in the test with CCRF-CEM leukemia came to 34.2 µM; in the test on HCT-15 colon, 11.3 µM; with HL-60(TB) leukemia, 28.5 µM; in the test on KM12 colon, 14.3 µM; with NCI-H23 lung it was 21.7 µM; in the test on NCI-H522 lung, 16.2 µM. Besides, the TGI came out at 24.9 µM with OVCAR-4 ovarian and 14.7 µM with SF-539 CNS.
Take `Nc1c(C(=O)Nc2cccc3ccccc23)sc2nc3c(cc12)CCCC3`: the GI50 was 0.658 µM with CCRF-CEM leukemia; 0.565 µM with HCT-15 colon; 0.233 µM in the test on HL-60(TB) leukemia; 0.675 µM in the test on KM12 colon; 3.43 µM in the test with NCI-H23 lung; 0.417 µM in the test on NCI-H522 lung. Further, the values for the GI50 in the test on OVCAR-4 ovarian and in the test with SF-539 CNS were 1.11 µM and 1.45 µM, respectively. Also, the TGI with CCRF-CEM leukemia is over 100 µM; with HCT-15 colon it was over 100 µM; in the test with HL-60(TB) leukemia it was 0.802 µM; in the test with KM12 colon, over 100 µM; in the test on NCI-H23 lung, over 100 µM; with NCI-H522 lung it was 4.6 µM. Further, the TGI with OVCAR-4 ovarian and in the test with SF-539 CNS was over 100 µM each time.
`COc1cc(Nc2ncc3c(n2)-c2ccc(Cl)cc2C(c2c(F)cccc2OC)=NC3)ccc1C(=O)O`: the GI50 is 0.579 µM in the test on CCRF-CEM leukemia; 4.77 µM in the test with HCT-15 colon; 16.5 µM with HL-60(TB) leukemia; 0.26 µM in the test with KM12 colon; 10.9 µM in the test with NCI-H23 lung; 0.501 µM in the test on NCI-H522 lung. For the same compound, the GI50 was 3.7 µM in the test on OVCAR-4 ovarian and 0.503 µM with SF-539 CNS. The TGI in the test with CCRF-CEM leukemia is over 65.9 µM; in the test with HCT-15 colon it was over 100 µM; in the test with HL-60(TB) leukemia, over 68 µM; in the test on KM12 colon, over 92.9 µM; with NCI-H23 lung, 65.1 µM; in the test with NCI-H522 lung it was 3.88 µM. The TGI was over 86.2 µM in the test on OVCAR-4 ovarian and 20 µM in the test with SF-539 CNS.
As for `O=C1CC(c2ccccc2)Cc2nc3ccc(Cl)cc3cc21` (stereo not drawn), the GI50 is 0.0395 µM in the test on CCRF-CEM leukemia; 0.511 µM with HCT-15 colon; 0.143 µM with HL-60(TB) leukemia; 0.342 µM in the test on KM12 colon; 0.562 µM with NCI-H23 lung; 0.194 µM with NCI-H522 lung. Also, the GI50 is 7.26 µM in the test on OVCAR-4 ovarian and 0.211 µM in the test on SF-539 CNS. The TGI in the test on CCRF-CEM leukemia is over 100 µM; with HCT-15 colon, 66.6 µM; with HL-60(TB) leukemia, 0.566 µM; in the test with KM12 colon it was 22.7 µM; in the test with NCI-H23 lung, over 100 µM; in the test on NCI-H522 lung it was 19 µM. The TGI in the test on OVCAR-4 ovarian was over 100 µM; in the test with SF-539 CNS, 0.642 µM.
Turning to `O=C1OCC2=C1C(c1cccc(F)c1)c1cc3c(cc1N2CCO)OCCO3` (stereo not drawn), the GI50 in the test on CCRF-CEM leukemia is 0.237 µM; in the test with HCT-15 colon it was 0.193 µM; in the test on HL-60(TB) leukemia, 0.137 µM; in the test on KM12 colon it was 0.172 µM; with NCI-H23 lung, 0.35 µM; in the test with NCI-H522 lung it was 0.0418 µM. The GI50 is 1.97 µM in the test on OVCAR-4 ovarian and 0.141 µM with SF-539 CNS. Also, the TGI is over 50 µM with CCRF-CEM leukemia; over 50 µM with HCT-15 colon; 0.387 µM in the test with HL-60(TB) leukemia; over 50 µM with KM12 colon; over 50 µM in the test on NCI-H23 lung; 2.58 µM with NCI-H522 lung. Also, the TGI with OVCAR-4 ovarian is over 50 µM; in the test with SF-539 CNS it was 0.831 µM.
As for `CSc1nc(Cl)c(Br)c(Nc2c[nH]c(=O)[nH]c2=O)n1`, the TGI in the test on CCRF-CEM leukemia stood at 49 µM; in the test with HCT-15 colon it was 27.6 µM; with HL-60(TB) leukemia, 5.47 µM; in the test with KM12 colon it was 67.8 µM; with NCI-H23 lung, 35.7 µM; in the test with NCI-H522 lung, 3.88 µM. Moreover, the TGI was 37.9 µM in the test with OVCAR-4 ovarian and 45.2 µM in the test on SF-539 CNS.
Regarding `COc1ccc(C(=O)Nc2ncc(Cc3ccc(F)cc3)s2)cc1`, the GI50 is 0.0446 µM in the test on CCRF-CEM leukemia; 0.0429 µM with HCT-15 colon; 0.0315 µM in the test on HL-60(TB) leukemia; 0.0408 µM in the test on KM12 colon; 0.368 µM in the test on NCI-H23 lung; 0.0874 µM in the test with NCI-H522 lung. The figures for the GI50 in the test with OVCAR-4 ovarian and with SF-539 CNS were 1.38 µM and 0.0448 µM, respectively. Further, the TGI is over 100 µM in the test with CCRF-CEM leukemia; over 100 µM in the test with HCT-15 colon; 0.169 µM with HL-60(TB) leukemia; 6.2 µM in the test on KM12 colon; over 100 µM with NCI-H23 lung; over 100 µM in the test on NCI-H522 lung. The TGI was over 100 µM in the test with OVCAR-4 ovarian and 0.414 µM in the test with SF-539 CNS.
Consider `COc1ccc2oc(-c3ccncc3)cc(=O)c2c1`, for which the TGI with CCRF-CEM leukemia, in the test with DMS 273 small cell lung, with HCT-15 colon, in the test with HL-60(TB) leukemia, in the test on KM12 colon and with NCI-H23 lung was over 100 µM in each case. Further, the TGI in the test on OVCAR-4 ovarian is over 100 µM.
In the case of `N#Cc1cc2cc3c4c(c2oc1=O)CCCN4CCC3`, the TGI in the test with CCRF-CEM leukemia, in the test with HCT-15 colon, in the test with HL-60(TB) leukemia, with KM12 colon, in the test with NCI-H23 lung and in the test with NCI-H522 lung was over 100 µM in each case. Also, the TGI in the test with OVCAR-4 ovarian and in the test on SF-539 CNS was over 100 µM throughout.

The values are drawn from PubChem BioAssay (NCI).
